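Interpolation was linear, between the two tested concentrations surrounding the appropriate level; five concentrations were tested over 48 hours in 96-well plates. GI50: concentration for 50% inhibition of growth. At the TGI there is no net growth.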
Legend:
Test in all cases: growth of human tumour cells (NCI), 48 h
SN12C renal = test system: SN12C renal
UACC-62 melanoma = test system: UACC-62 melanoma
MALME-3M melanoma = test system: MALME-3M melanoma
SF-268 CNS = test system: SF-268 CNS
NCI-H226 lung = test system: NCI-H226 lung
CAKI-1 renal = test system: CAKI-1 renal
ACHN renal = test system: ACHN renal
T-47D breast = test system: T-47D breast
LOX IMVI melanoma = test system: LOX IMVI melanoma
DU-145 prostate = test system: DU-145 prostate
NCI/ADR-RES ovarian = test system: NCI/ADR-RES ovarian
MDA-MB-435 = test system: MDA-MB-435
SF-539 CNS = test system: SF-539 CNS
KM12 colon = test system: KM12 colon
OVCAR-4 ovarian = test system: OVCAR-4 ovarian
K-562 leukemia = test system: K-562 leukemia
NCI-H522 lung = test system: NCI-H522 lung
PC-3 prostate = test system: PC-3 prostate
SK-MEL-28 melanoma = test system: SK-MEL-28 melanoma
A549 NSCLC = test system: A549 NSCLC
786-0 renal = test system: 786-0 renal
HCT-15 colon = test system: HCT-15 colon
OVCAR-8 ovarian = test system: OVCAR-8 ovarian
SF-295 CNS = test system: SF-295 CNS
MOLT-4 leukemia = test system: MOLT-4 leukemia
SK-OV-3 ovarian = test system: SK-OV-3 ovarian
IGROV1 ovarian = test system: IGROV1 ovarian
RXF 393 renal = test system: RXF 393 renal
HCC-2998 colon = test system: HCC-2998 colon
OVCAR-5 ovarian = test system: OVCAR-5 ovarian
SR leukemia = test system: SR leukemia
NCI-H460 lung = test system: NCI-H460 lung
A498 renal = test system: A498 renal
HCT-116 colon = test system: HCT-116 colon
OVCAR-3 ovarian = test system: OVCAR-3 ovarian
SW-620 colon = test system: SW-620 colon
CCRF-CEM leukemia = test system: CCRF-CEM leukemia
UO-31 renal = test system: UO-31 renal
EKVX NSCLC = test system: EKVX NSCLC
HOP-62 NSCLC = test system: HOP-62 NSCLC
SK-MEL-5 melanoma = test system: SK-MEL-5 melanoma
U251 CNS = test system: U251 CNS
MCF7 breast = test system: MCF7 breast
NCI-H23 lung = test system: NCI-H23 lung
COLO 205 colon = test system: COLO 205 colon
BT-549 breast = test system: BT-549 breast
HL-60(TB) leukemia = test system: HL-60(TB) leukemia
SNB-75 CNS = test system: SNB-75 CNS
UACC-257 melanoma = test system: UACC-257 melanoma
M14 melanoma = test system: M14 melanoma
HT29 colon = test system: HT29 colon
TK-10 renal = test system: TK-10 renal
RPMI-8226 leukemia = test system: RPMI-8226 leukemia
SK-MEL-2 melanoma = test system: SK-MEL-2 melanoma
HS 578T breast = test system: HS 578T breast
SNB-19 CNS = test system: SNB-19 CNS
MDA-MB-231 breast = test system: MDA-MB-231 breast

CC1(N)CCN(c2cccnc2NC(=O)c2nc(-c3ncccc3C(F)(F)F)cnc2N)CC1
GI50 (SN12C renal): 16.2 µM
TGI (SN12C renal): > 100 µM
GI50 (UACC-62 melanoma): 61.2 µM
TGI (UACC-62 melanoma): > 100 µM
GI50 (MALME-3M melanoma): 17.6 µM
TGI (MALME-3M melanoma): 36.4 µM
GI50 (SF-268 CNS): 31.5 µM
TGI (SF-268 CNS): > 100 µM
GI50 (NCI-H226 lung): 35.9 µM
TGI (NCI-H226 lung): > 100 µM
GI50 (CAKI-1 renal): 17.8 µM
TGI (CAKI-1 renal): > 100 µM
GI50 (ACHN renal): 19.2 µM
TGI (ACHN renal): > 100 µM
GI50 (T-47D breast): 17.5 µM
TGI (T-47D breast): 48.3 µM
GI50 (LOX IMVI melanoma): 21.5 µM
TGI (LOX IMVI melanoma): 53.4 µM
GI50 (DU-145 prostate): 35.3 µM
TGI (DU-145 prostate): > 100 µM
GI50 (NCI/ADR-RES ovarian): 68.7 µM
TGI (NCI/ADR-RES ovarian): > 100 µM
GI50 (MDA-MB-435): 41.6 µM
TGI (MDA-MB-435): > 100 µM
GI50 (SF-539 CNS): 14.4 µM
TGI (SF-539 CNS): 33.7 µM
GI50 (KM12 colon): 0.413 µM
TGI (KM12 colon): > 100 µM
GI50 (OVCAR-4 ovarian): 21.5 µM
TGI (OVCAR-4 ovarian): > 100 µM
GI50 (K-562 leukemia): 22.3 µM
TGI (K-562 leukemia): > 100 µM
GI50 (NCI-H522 lung): 15.1 µM
TGI (NCI-H522 lung): 47.9 µM
GI50 (PC-3 prostate): 30.9 µM
TGI (PC-3 prostate): > 100 µM
GI50 (SK-MEL-28 melanoma): 25 µM
TGI (SK-MEL-28 melanoma): 85.6 µM
GI50 (A549 NSCLC): 22 µM
TGI (A549 NSCLC): > 100 µM
GI50 (786-0 renal): 15.3 µM
TGI (786-0 renal): > 100 µM
GI50 (HCT-15 colon): 25.1 µM
TGI (HCT-15 colon): > 100 µM
GI50 (OVCAR-8 ovarian): 40.2 µM
TGI (OVCAR-8 ovarian): > 100 µM
GI50 (SF-295 CNS): 99.3 µM
TGI (SF-295 CNS): > 100 µM
GI50 (MOLT-4 leukemia): 13.9 µM
TGI (MOLT-4 leukemia): 69.7 µM
GI50 (SK-OV-3 ovarian): 7.86 µM
TGI (SK-OV-3 ovarian): 73.8 µM
GI50 (IGROV1 ovarian): 3.67 µM
TGI (IGROV1 ovarian): > 100 µM
GI50 (RXF 393 renal): 10.1 µM
TGI (RXF 393 renal): 32.4 µM
GI50 (HCC-2998 colon): > 100 µM
TGI (HCC-2998 colon): > 100 µM
GI50 (OVCAR-5 ovarian): 20 µM
TGI (OVCAR-5 ovarian): > 100 µM
GI50 (SR leukemia): 3.3 µM
TGI (SR leukemia): 35.5 µM
GI50 (NCI-H460 lung): 41.1 µM
TGI (NCI-H460 lung): > 100 µM
GI50 (A498 renal): 34.7 µM
TGI (A498 renal): > 100 µM
GI50 (HCT-116 colon): 13.5 µM
TGI (HCT-116 colon): > 100 µM
GI50 (OVCAR-3 ovarian): 26.2 µM
TGI (OVCAR-3 ovarian): > 100 µM
GI50 (SW-620 colon): 28.4 µM
TGI (SW-620 colon): > 100 µM
GI50 (CCRF-CEM leukemia): 26.9 µM
TGI (CCRF-CEM leukemia): > 100 µM
GI50 (UO-31 renal): 16.6 µM
TGI (UO-31 renal): > 100 µM
GI50 (EKVX NSCLC): 34.9 µM
TGI (EKVX NSCLC): > 100 µM
GI50 (HOP-62 NSCLC): 37.5 µM
TGI (HOP-62 NSCLC): > 100 µM
GI50 (SK-MEL-5 melanoma): 18.3 µM
TGI (SK-MEL-5 melanoma): 33 µM
GI50 (U251 CNS): 21.8 µM
TGI (U251 CNS): > 100 µM
GI50 (MCF7 breast): 26.2 µM
TGI (MCF7 breast): > 100 µM
GI50 (NCI-H23 lung): 49.5 µM
TGI (NCI-H23 lung): > 100 µM
GI50 (COLO 205 colon): 5.48 µM
TGI (COLO 205 colon): 36.6 µM
GI50 (BT-549 breast): 18.2 µM
TGI (BT-549 breast): > 100 µM
GI50 (HL-60(TB) leukemia): 12.4 µM
TGI (HL-60(TB) leukemia): 37.8 µM
GI50 (SNB-75 CNS): 18.9 µM
TGI (SNB-75 CNS): > 100 µM
GI50 (UACC-257 melanoma): 18.1 µM
TGI (UACC-257 melanoma): 34.1 µM
GI50 (M14 melanoma): 25.9 µM
TGI (M14 melanoma): 80.3 µM
GI50 (HT29 colon): 19.6 µM
TGI (HT29 colon): > 100 µM
GI50 (TK-10 renal): 4.35 µM
TGI (TK-10 renal): > 100 µM
GI50 (RPMI-8226 leukemia): 24.4 µM
TGI (RPMI-8226 leukemia): > 100 µM
GI50 (SK-MEL-2 melanoma): 50.9 µM
TGI (SK-MEL-2 melanoma): > 100 µM
GI50 (HS 578T breast): 38.5 µM
TGI (HS 578T breast): > 100 µM
GI50 (SNB-19 CNS): 50 µM
TGI (SNB-19 CNS): > 100 µM
GI50 (MDA-MB-231 breast): 27.8 µM
TGI (MDA-MB-231 breast): > 100 µM

From PubChem BioAssay (NCI)
